{
  "source": "patent US11617741B1",
  "about": "“Method for inhibiting growth of bacteria” (priority 2021, dated 2023)",
  "key": {"glyQS T-box": {"system": "glyQS T-box", "assay": "qRT-PCR transcriptional read-through of T-box-regulated glyQS (confirmation of inhibition of T-box mechanism)", "format": "cell-based, Bacillus subtilis 1A5", "conditions": "for T-Box targeting: confirmation of inhibition of T-box mechanism from qRT-PCR assay", "text": "Sample preparation of RNA and cDNA."}, "[1]": {"system": "S. aureus N315 (MRSA isolate)", "assay": "Minimum inhibitory and bactericidal concentration determination", "format": "cell-based, Staphylococcus aureus", "procedure": "(§1) The 96-well plate was organized as follows. Media (100 μl) were added to all wells."}, "E. coli": {"system": "E. coli", "assay": "Minimum inhibitory and bactericidal concentration determination, Gram-negative control", "format": "cell-based, Escherichia coli", "procedure": "as §1"}, "B. subtilis 168 [2]": {"system": "B. subtilis 168", "assay": "Minimum inhibitory concentration determination", "format": "cell-based, Bacillus subtilis", "procedure": "as §1"}, "S. aureus N315": {"system": "S. aureus N315", "assay": "Checkerboard assay and FIC", "format": "cell-based, Staphylococcus aureus", "procedure": "S. aureus N315 cultures were prepared identically to MIC determination in BHI media. The co-MICs were determined using the checkerboard method. In short, antibiotics to be tested with PKZ18 analogs were diluted 2-fold top to bottom (A to G rows) in a 96-well plate, PKZ18 analogs were diluted 2-fold right to left (columns 11-2 of the 96-well plate), and column 12 was used for vector, media, and growth controls. Each drug was therefore tested by itself and with every dilution of the other drug.\nThe synergistic and additive interactions were determined based on determined cutoffs using the equation\n[formula] where MICAB is the lowest possible concentration of both drugs combined where there is no growth, and MICA and MICB are the MIC values of the individual drugs. For a synergistic drug interaction, the fractional inhibitory concentration (FIC) should be below 0.5, additive or indifferent effects are considered in an FIC range of 0.5 to <4, and an FIC value above 4 is considered antagonistic."}, "S. aureus N315 (MRSA)": {"system": "S. aureus N315 (MRSA)", "assay": "Antibiotic resistance frequency (fluctuation assay)", "format": "cell-based, Staphylococcus aureus", "conditions": "MRSA plated on 64 μg/ml PKZ18-22 or 10 μg/ml gentamicin", "text": "Gentamicin on BHI agar was used as a control."}, "B. subtilis 168 [3]": {"system": "B. subtilis 168", "procedure": "Gentamicin on BHI agar was used as a control. In short, MRSA and B. subtilis were grown overnight in BHI, and 3-hour day cultures at the optical density of A620 of 0.1 were started for both organisms. The optical density after 3 hours of growth was measured; cultures were then pelleted and resuspended to give 10^11 CFU/ml by optical density. CFU of 10^11 per OD were plated in total; 100 μl of the cells were then plated on BHI agar containing either 128 μg/m1PKZ18 or 64 μg/m1PKZ18-22. Serial dilutions of the cells were plated on plain BHI agar in order to calculate the CFU/ml, which was calculated as the number of colonies found on the plates divided by the total number of bacteria plated. CFU means colony forming units, a measure of live bacteria."}, "S. aureus biofilm": {"system": "S. aureus biofilm", "assay": "MBEC-HTP biofilm model, combinations, Bliss independence model and CFU recovery", "format": "cell-based, Staphylococcus aureus", "procedure": "This inherent resistance of bacteria in biofilms and the emergence of antibiotic-resistant bacteria has necessitated the drive to explore competent novel antimicrobial agents such as PKZ18 and the development of combinations of these novel antimicrobial agents with established antibiotics. We determined the minimum biofilm eradication concentration (MBEC) of compounds of Formula I in combination with vancomycin, gentamicin, rifampin, and tetracycline. Three independent experiments were conducted and required a checkerboard dilution to test various concentrations of the following combinations (compound of Formula I+each antibiotic) against S. aureus utilizing an established MBEC™-HTP biofilm model (Innovotech).\nBriefly, an overnight culture of S. aureus was diluted to 1×10^5 cells/mL in cation-adjusted Mueller Hinton broth (MHB) supplemented with 1% human plasma and added to the wells of an MBEC plate. […] After incubation, the lid was removed and rinsed in PBS. Following treatment, a tetrazolium (2,3,5-triphenyl tetrazolium chloride, TTC) assay was performed to assess metabolic activity and viability. The lid was rinsed in PBS, transferred to a 96-well plate containing a 0.01% TTC solution in MHB, and incubated at 37° C. overnight. To dissolve the stain from the pegs, the lid was placed in a 96-well plate containing 96% ethanol and the OD of the wells was then read at 490 nm. Data was analyzed with the Bliss independence model using the Combenefit software.\nAfter rinsing in PBS, designated pegs were snapped off the lid using sterile tweezers and placed in 1.5 mL Eppendorf tubes containing 200 μL PBS. Biofilm was disrupted from the pegs by sonicating the tubes for 15 min (Branson M8800H, Branson Ultrasonics, West Chester, Pa., USA), followed by vortexing for 10 s. Three independent serial dilutions were prepared for each sample and plated on tryptic soy agar (TSA) plates that were incubated overnight at 37° C. The plates were then imaged and colonies counted on a ColonyDoc-It™ Imaging station (UVP, Analytik Jena, Beverly, Mass., USA)."}, "[4]": {"system": "T-box controlled genes in MRSA", "assay": "RNA sequencing of MRSA grown in minimal media", "format": "cell-based, Staphylococcus aureus"}, "[5]": {"system": "ileS and tyrS T-boxes in WT MRSA", "procedure": "Sample preparation of RNA and cDNA. RNA extraction and cDNA preparation were conducted as previously reported. In short, guanidine thiocyanate (0.5 M final concentration)-treated and pelleted bacterial cultures were resuspended in TRIzol, lysed by beat beating with zirconia beads, and centrifuged.\nThe solution was transferred to fresh tubes, and the RNA was extracted with chloroform. The RNA was then pelleted with 100% isopropanol and washed with ice-cold 70% ethanol, resuspended in Millipore water, DNase treated, and extracted with another isopropanol precipitation and ethanol wash. The resulting RNA was quantified using a NanoDrop 3300 (Thermo Fisher), and the quality was assessed by running 1 μg on a denaturing agarose gel. DNA contamination was tested for by PCR followed by agarose gel electrophoresis. cDNA was generated from 1 μg of high-quality RNA using the SuperScript III reverse transcriptase protocol for random primers (Thermo Fisher).\nEither 2-fold or 10-fold dilutions of cDNA were used, and amplification was monitored with Evagreen dye. The expression was normalized to either 23S (B. subtilis 1A5) or 16S (MRSA) and reported as percentage read-through of the T-boxes tested for, calculated using the threshold cycle (2^−ΔΔCT) method."}, "[6]": {"system": "planktonic growth of Staphylococcus", "method": "An overnight culture of S. aureus (ATCC 29213) was diluted to 1×10^7 cells/mL in tryptic soy broth (TSB) supplemented with 10% human plasma (Innovative Research, Novi, Mich. USA) and added to the wells of an MBEC™-HTP Assay Biofilm Innoculator (Innovotech, Edmonton, AB, Canada). The plate was incubated overnight at 37° C. and shaken at 125 rpm. […] Control wells were without a COMPOUND OF Formula I. The treatment plate was incubated for 24 h at 37° C. after which the lid was removed, rinsed with PBS, and placed in a new 96-well plate containing TSB. The biofilm was removed from the assay lid into the recovery plate wells by sonication, a new plate cover was added, and the viability of the biofilm was determined after 24 h of incubation at 37° C. by reading the OD at 625 nm. Three independent experiments were conducted. Concentrations of interest were followed up with colony forming unit (CFU) recovery and scanning electron microscopy analysis. After conclusion of the MBEC assay, the minimum bactericidal concentration (MBC) was determined. The MBC is the lowest concentration of an antibacterial agent required to kill a particular bacterium. The peg lid from the MBEC assay was removed from the challenge plate and 20 μL of medium from each well of the challenge plate was removed and added to a new sterile 96-well plate filled with 180 μL TSB. […]"}},
  "note": "Marks after values point to notes of the source that are not given here.",
  "data": [
    {"compound": "CC(C)Cc1ccc(-c2csc(NC(=O)C3C4CCC(C4)C3C(=O)O)n2)cc1", "note": "(centres unmarked) [PKZ18-22]", "values": [
      {"measurement": "inhibition of read-through compared with PKZ18", "setting": "glyQS T-box; 4 μg/ml of each drug, side by side in same biological replicate", "value": "significantly better than PKZ18"},
      {"measurement": "T-box-controlled expression of glyQS (termination of read-through)", "setting": "glyQS T-box; B. subtilis 1A5, increasing concentrations, minimal media", "value": "inhibited"},
      {"measurement": "T-Box targeting", "setting": "glyQS T-box; Table 1", "value": "Yes"},
      {"measurement": "T-Box targeting", "setting": "glyQS T-box; Table 2", "value": "Yes"},
      {"measurement": "bactericidal effect", "setting": "[1]; MRSA", "value": "bactericidal"},
      {"measurement": "fold reduction in MIC in minimal compared to rich media", "setting": "[1]; MRSA strain S. aureus N315", "value": 4, "unit": "fold"},
      {"measurement": "MIC against S. aureus in minimal media", "setting": "[1]; S. aureus N315, minimal media", "value": "8^b μg/ml"},
      {"measurement": "MIC against S. aureus in rich media", "setting": "[1]; S. aureus N315, rich media", "value": "32^b μg/ml"},
      {"measurement": "MIC S. aureus N315", "setting": "[1]; Table 2", "value": 32, "unit": "µg/mL"},
      {"measurement": "MBC S. aureus N315", "setting": "[1]; Table 2, value in parentheses", "value": 64, "unit": "µg/mL"},
      {"measurement": "MIC E. coli", "setting": "E. coli", "value": "> 256", "unit": "µg/mL"},
      {"measurement": "MBC E. coli", "setting": "E. coli; value in parentheses", "value": "> 256", "unit": "µg/mL"},
      {"measurement": "bactericidal effect", "setting": "B. subtilis 168 [2]; B. subtilis 168", "value": "bactericidal"},
      {"measurement": "MIC against B. subtilis 168 in minimal media", "setting": "B. subtilis 168 [2]; minimal media", "value": 4, "unit": "µg/mL"},
      {"measurement": "MIC against B. subtilis 168 in rich media", "setting": "B. subtilis 168 [2]; rich media", "value": 16, "unit": "µg/mL"},
      {"measurement": "FIC of PKZ18-22 and gentamicin", "setting": "S. aureus N315; both rich and minimal media, WT MRSA", "value": 0.38},
      {"measurement": "fold decrease in the MIC of PKZ18-22", "setting": "S. aureus N315; in combination with gentamicin", "value": 4, "unit": "fold"},
      {"measurement": "fractional inhibitory concentration FIC", "setting": "S. aureus N315; with ampicillin", "value": 0.75},
      {"measurement": "fractional inhibitory concentration FIC", "setting": "S. aureus N315; with chloramphenicol", "value": 0.75},
      {"measurement": "fractional inhibitory concentration FIC", "setting": "S. aureus N315; with gentamicin", "value": 0.38},
      {"measurement": "fractional inhibitory concentration FIC", "setting": "S. aureus N315; with kanamycin A", "value": 0.38},
      {"measurement": "fractional inhibitory concentration FIC", "setting": "S. aureus N315; with neomycin B", "value": 0.38},
      {"measurement": "fractional inhibitory concentration FIC", "setting": "S. aureus N315; with streptomycin", "value": 0.75},
      {"measurement": "resistance frequency", "setting": "S. aureus N315 (MRSA)", "value": "5.6×10^−12"},
      {"measurement": "resistant colonies", "setting": "B. subtilis 168 [3]", "value": "did not generate resistant colonies"},
      {"measurement": "highest synergy score (Bliss)", "setting": "S. aureus biofilm; PKZ18-22 25 μg/mL and gentamicin 16 μg/mL and 64 μg/mL", "value": 87},
      {"measurement": "log reduction in CFU/mL in biofilm growth", "setting": "S. aureus biofilm; PKZ18-22 25 μg/mL and gentamicin 64 μg/mL, 24 h exposure", "value": "~5", "unit": "log"},
      {"measurement": "biofilm CFU reduction with rifampin combination", "setting": "S. aureus biofilm; PKZ18-22 25 μg/mL and rifampin 0.001 or 0.005 μg/mL, single dose 24 h", "value": "significantly greater reduction when compared to each treatment alone"},
      {"measurement": "maximal synergy score (Bliss)", "setting": "S. aureus biofilm; PKZ18-22 25 μg/mL and vancomycin 4 μg/mL", "value": 43},
      {"measurement": "cell reduction", "setting": "S. aureus biofilm; combination of gentamicin/PKZ18-22, single dose 24 h challenge", "value": "> 99.9", "unit": "%"},
      {"measurement": "synergy with minocycline", "setting": "S. aureus biofilm; single dose 24 h challenge", "value": "not synergistic"},
      {"measurement": "cysteine and histidine T-boxes (cysE-cysS and hisS-aspS operons)", "setting": "[4]; 4 and 8 μg/ml", "value": "inhibited only by the higher concentration"},
      {"measurement": "read-through of alaS", "setting": "[4]; 4 and 8 μg/ml", "value": "not inhibited"},
      {"measurement": "read-through reduction of tyrS", "setting": "[4]; 4 and 8 μg/ml", "value": "not statistically significant"},
      {"measurement": "overall change in gene expression", "setting": "[4]; 4 and 8 μg/ml vs untreated", "value": "large overall change in expression"},
      {"measurement": "genes under T-box control (out of the 12) with reduced expression", "setting": "[4]; 4 or 8 μg/ml PKZ18-22", "value": 8},
      {"measurement": "read-throughs of glyS, ileS, leuS, pheST, serS, thrS and valS", "setting": "[4]; both concentrations (4 and 8 μg/ml), normalized to untreated", "value": "reduction"},
      {"measurement": "relative read-through of other riboswitch-controlled genes", "setting": "[4]; non-T-box 5′UTR regulated genes", "value": "did not significantly change"},
      {"measurement": "relative read-through of ileS and tyrS", "setting": "[5]; MRSA in minimal media, 4 μg/ml", "value": "decrease"},
      {"measurement": "read-through of ileS and tyrS", "setting": "[5]; MRSA in rich media, 8 μg/ml", "value": "reduced"},
      {"measurement": "planktonic growth over a range of concentrations", "setting": "[6]", "value": "killing curve"}
    ]}
  ]
}
